Measurements as given in patent US20210023223A1, “HYDROCARBON / LIPID - CAROTENOID COMPLEXES” (IP SCIENCE LIMITED, priority 2018, published 2021).

Tests used:
[1] = Acid induced degradation at pH 2.5, gas chromatography; type: physicochemical
Method: Briefly, 100 μl of serum and 2 ml of the stock solution were combined in screw-capped glass tubes. The tubes were capped and heated at 100 C for 60 min. The tubes were allowed to cool down to the room temperature and were extracted twice with 1 ml hexane. The combined hexane solution was evaporated under vacuum (Scan Speed 32 centrifuge) and the residue reconstituted to the volume of 50 μl with of hexane, transferred to GC vials, and capped under nitrogen.
Temperature program, initial: 130 C with a 4 min hold; ramp: 4 C/min to 280 C with a 2 min hold. Carrier gas was He, with a linear velocity of 30 cm/s. Fatty acid analysis was performed by injection of 1 μl of each sample at a split ratio of 50:1. The FID and the Injection port temperature was 300 C. The sampling frequency was 40 Hz. Fatty acids identification was performed with SUPELCO 37 COMPONENT FAME MIX (Supelco, USA). DHA concentrations were calculated on the basis of the standard concentrations. Analytical standard of DHA and PTC (Sigma, USA) were used in the assay.

[2] = tested on: individuals with a moderate hyperlipidemia; experiment: Clinical Trial DHA-Lycopene, 4 weeks; type: in vivo, human; conditions: for LDL / Triglycerides: medians, DHA 250 mg and/or lycopene 7 mg once a day
Method: To validate this, a clinical trial was undertaken. 32 individuals aged 40-65 years old with a moderate hyperlipidemia (serum triglycerides, TG, >150 mg/dl and LDL from 130 to 160 mg/dl). They were randomised and split in four groups of 8: • The first was supplemented with a 250 mg of conventional formulation of DHA without lycopene (CF-DHA), • the second with 7 mg of lycopene, • the third with 250 mg of DHA and 7 mg of lycopene co-ingested at the same time but as two separate products, and • the fourth group received 7 mg lycopene formulated with 250 mg of DHA (LF-DHA). All products were taken once a day with the main meal. The duration of the trial was for 4 weeks.

Melting time at 37° C. = type: physicochemical; conditions: 1 mg per 1 g of the chocolate; control 19 minutes
Method: Approximately 20 mg of butter, or pork fat, or beef fat, or cocoa butter, or chocolate, with or without certain concentrations of carotenoids, were placed on the surface of the laboratory slides and incubated at 37° C. in a laboratory incubator (TLK39).
Results presented in FIG. 15 show three different carotenoids—lycopene, lutein and astaxanthin, can reduce, albeit to a different degree, the melting time of dark chocolate regardless of its tempering protocols: Protocol I—28° C., Protocol II—29° C., Protocol III—30° C.

[3] = DHA preparation without lycopene
[4] = DHA preparation with lycopene 1 mg per 1 g of DHA

| GC peak Area, %, Baseline [1, 3] [%] | GC peak Area, Baseline [1, 3] | GC peak Area, %, After 2 hours at pH 2.5 [1, 4] [%] | GC peak Area, %, Baseline [1, 4] [%] | GC peak Area, After 2 hours at pH 2.5 [1, 4] | GC peak Area, Baseline [1, 4] | GC peak Area, %, After 2 hours at pH 2.5 [1, 3] [%] | GC peak Area, After 2 hours at pH 2.5 [1, 3] | Melting time of dark chocolate (Melting time at 37° C.) [min] | Compound | LDL ([2]; 0 w) [mg/dL] | Triglycerides ([2]; 0 w) [mg/dL] | LDL ([2]; 4 w) [mg/dL] | Triglycerides ([2]; 4 w) [mg/dL] | Reduction of medians of serum TG concentration ([2]; 4 weeks) [mg/dL] | Reduction in LDL ([2]; 4 weeks, p<0.05) [mg/dL] |
| --- | --- | --- | --- | --- | --- | --- | --- | --- | --- | --- | --- | --- | --- | --- | --- |
| 0.10 | 1,032 | – | – | – | – | – | – | – | CCCCCCCCCCCCCCCCCCCC(=O)O [Arachidic] | – | – | – | – | – | – |
| 0.83 | 8,907 | 0.81 | 0.82 | 8,565 | 7,859 | 0.79 | 5323 | – | CCCCC/C=C\C/C=C\C/C=C\C/C=C\CCCC(=O)O [Arachidonic] | – | – | – | – | – | – |
| 0.10 | 1,096 | – | – | – | – | – | – | – | CCCCCCCCCCCCCCCCCCCCCC(=O)O [Behenic] | – | – | – | – | – | – |
| – | – | – | – | – | – | – | – | – | CC/C=C\C/C=C\C/C=C\C/C=C\C/C=C\C/C=C\CCC(=O)O [DHA, Doxosahexaenoic Acid] | 155.5 | 191.5 | 153.5 | 185.5 | 27.5 | 19.5 |
| 0.20 | 2,108 | 0.21 | 0.26 | 2,205 | 2,537 | 0.24 | 1629 | – | CCCCCCCC/C=C/CCCCCCCC(=O)O [Elaidic] | – | – | – | – | – | – |
| 0.16 | 1,718 | 0.15 | 0.14 | 1,605 | 1,354 | – | – | – | CCCCCCCCCCCC(=O)O [Lauric] | – | – | – | – | – | – |
| 0.14 | 1,518 | 0.17 | 0.17 | 1,775 | 1,613 | 0.17 | 1162 | – | CCCCCCCCCCCCCCCCCCCCCCCC(=O)O [Lignoceric] | – | – | – | – | – | – |
| 0.89 | 9,494 | 0.98 | 1.28 | 10,395 | 12,328 | 1.25 | 8396 | – | CCCCC/C=C\C/C=C\CCCCCCCC(=O)O [Linoleic] | – | – | – | – | – | – |
| – | – | – | – | – | – | – | – | 6 | CC1=C[C@H](O)CC(C)(C)[C@H]1/C=C/C(C)=C/C=C/C(C)=C/C=C/C=C(C)/C=C/C=C(C)/C=C/C1=C(C)C[C@@H](O)CC1(C)C [Lutein, lutein] | – | – | – | – | – | – |
| 6.23 | 73,096 | 6.56 | 6.42 | 69,816 | 61,814 | 6.42 | 43,118 | – | CCCCCCCCCCCCCC(=O)O [Myristic] | – | – | – | – | – | – |
| 0.18 | 1,934 | 0.17 | 0.17 | 1,789 | 1,662 | 0.18 | 1,197 | – | CCCC/C=C\CCCCCCCC(=O)O [Myristoleic] | – | – | – | – | – | – |
| 18.45 | 197,526 | 17.52 | 17.82 | 186,438 | 171,664 | 17.66 | 118,649 | – | CCCCCCCCCCCCCCCC(=O)O [Palmitic] | – | – | – | – | – | – |
| 0.11 | 1,219 | 0.16 | 0.17 | 1,710 | 1,598 | 0.19 | 1,278 | – | CCCCCC/C=C\CCCCCCCC(=O)O [Palmitoleic] | – | – | – | – | – | – |
| 0.29 | 3,120 | 0.27 | 0.26 | 2,843 | 2,511 | 0.26 | 1,716 | – | CCCCCCCCCCCCCCC(=O)O [Pentadecanoic] | – | – | – | – | – | – |
| 0.66 | 7,051 | 0.64 | 0.69 | 6,811 | 6,673 | 0.68 | 4597 | – | CCCCCCCCCCCCCCCCCC(=O)O [Stearic] | – | – | – | – | – | – |
| 42.63 | 456,572 | 43.60 | 42.55 | 464,051 | 409,974 | 43.54 | 292,485 | – | CCC=CCC=CCC=CCC=CCC=CC/C=C\CCC(=O)O [cis-4,7,10,13,16,19-Docosahexaenoic] | – | – | – | – | – | – |
| 1.07 | 11,447 | 1.01 | 1.03 | 10,759 | 9,937 | 0.99 | 6679 | – | CCC=CCC=CCC=CCC=CC/C=C\CCCC(=O)O [cis-5,8,11,14,17-eicosapentaenoic] | – | – | – | – | – | – |
| 0.28 | 3,030 | 0.26 | 0.27 | 2,767 | 2,627 | 0.28 | 1,851 | – | CCCCC/C=C\C/C=C\C/C=C\CCCCC(=O)O [gamma-Linolenic] | – | – | – | – | – | – |
| 6.53 | 69,917 | 6.42 | 6.63 | 68,330 | 63,846 | 6.72 | 45112 | – | Linole/alpha-linilenic | – | – | – | – | – | – |
| 0.47 | 5,002 | 0.55 | 0.46 | 5,889 | 4,391 | 0.42 | 2800 | – | cis-8,11,14,17-eicosapentaenoic | – | – | – | – | – | – |

| Compound | GC peak Area, %, Baseline [1, 3] [%] | GC peak Area, Baseline [1, 3] | GC peak Area, %, After 2 hours at pH 2.5 [1, 4] [%] | GC peak Area, %, Baseline [1, 4] [%] | GC peak Area, After 2 hours at pH 2.5 [1, 4] | GC peak Area, Baseline [1, 4] | GC peak Area, %, After 2 hours at pH 2.5 [1, 3] [%] | GC peak Area, After 2 hours at pH 2.5 [1, 3] | Melting time of dark chocolate (Melting time at 37° C.) [min] | LDL ([2]; 0 w) [mg/dL] | Triglycerides ([2]; 0 w) [mg/dL] | LDL ([2]; 4 w) [mg/dL] | Triglycerides ([2]; 4 w) [mg/dL] | Reduction of medians of serum TG concentration ([2]; 4 weeks) [mg/dL] | Reduction in LDL ([2]; 4 weeks, p<0.05) [mg/dL] |
| --- | --- | --- | --- | --- | --- | --- | --- | --- | --- | --- | --- | --- | --- | --- | --- |
| CCCCCC(=O)O [Caproic] | 1.31 | 13,975 | – | – | – | – | – | – | – | – | – | – | – | – | – |
